How the values were obtained:
Experiment in all cases: LC-MS/MS cellular uptake versus vector control
Format in all cases: cell-based
[1] = biological target: T1, AfOPTH (Aspergillus fumigatus, UniProt Q4WAD5); conditions: 100 uM folinic acid, opt1-delta cells, pH 5.5, 30 °C, 5 min
T1 construct: gene AFUA_7G00910; plasmid-expressed in S. cerevisiae opt1-delta cells (MET25 promoter; TEF)
T1 sequence (Q4WAD5 1-757): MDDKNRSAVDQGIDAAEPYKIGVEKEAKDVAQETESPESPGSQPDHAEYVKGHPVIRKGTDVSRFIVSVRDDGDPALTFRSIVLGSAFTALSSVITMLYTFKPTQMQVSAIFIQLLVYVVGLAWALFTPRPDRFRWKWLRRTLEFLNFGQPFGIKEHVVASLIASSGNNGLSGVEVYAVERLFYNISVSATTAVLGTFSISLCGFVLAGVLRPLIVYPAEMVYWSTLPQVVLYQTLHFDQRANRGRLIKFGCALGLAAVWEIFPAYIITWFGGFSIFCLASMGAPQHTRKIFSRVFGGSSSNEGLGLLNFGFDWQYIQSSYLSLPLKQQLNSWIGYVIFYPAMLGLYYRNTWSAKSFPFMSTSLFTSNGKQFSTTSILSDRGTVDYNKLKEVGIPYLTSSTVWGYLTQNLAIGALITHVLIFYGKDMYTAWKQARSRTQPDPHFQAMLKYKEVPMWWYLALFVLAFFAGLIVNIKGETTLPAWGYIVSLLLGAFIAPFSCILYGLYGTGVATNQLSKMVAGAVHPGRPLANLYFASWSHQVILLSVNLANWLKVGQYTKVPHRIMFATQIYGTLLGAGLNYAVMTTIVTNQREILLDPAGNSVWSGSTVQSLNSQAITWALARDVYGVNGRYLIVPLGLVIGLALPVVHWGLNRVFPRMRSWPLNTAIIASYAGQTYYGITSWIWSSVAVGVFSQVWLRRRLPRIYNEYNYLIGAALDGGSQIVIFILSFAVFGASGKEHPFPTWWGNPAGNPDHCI

[2] = biological target: T2, AtOPT4 (Arabidopsis thaliana, UniProt Q9FME8); conditions: 100 uM folinic acid, opt1-delta cells, pH 5.5, 30 °C, 5 min
T2 construct: gene OPT4; cDNA from Arabidopsis Biological Resource Center, TEF promoter plasmid, in S. cerevisiae opt1-delta cells
T2 sequence (Q9FME8 2-729): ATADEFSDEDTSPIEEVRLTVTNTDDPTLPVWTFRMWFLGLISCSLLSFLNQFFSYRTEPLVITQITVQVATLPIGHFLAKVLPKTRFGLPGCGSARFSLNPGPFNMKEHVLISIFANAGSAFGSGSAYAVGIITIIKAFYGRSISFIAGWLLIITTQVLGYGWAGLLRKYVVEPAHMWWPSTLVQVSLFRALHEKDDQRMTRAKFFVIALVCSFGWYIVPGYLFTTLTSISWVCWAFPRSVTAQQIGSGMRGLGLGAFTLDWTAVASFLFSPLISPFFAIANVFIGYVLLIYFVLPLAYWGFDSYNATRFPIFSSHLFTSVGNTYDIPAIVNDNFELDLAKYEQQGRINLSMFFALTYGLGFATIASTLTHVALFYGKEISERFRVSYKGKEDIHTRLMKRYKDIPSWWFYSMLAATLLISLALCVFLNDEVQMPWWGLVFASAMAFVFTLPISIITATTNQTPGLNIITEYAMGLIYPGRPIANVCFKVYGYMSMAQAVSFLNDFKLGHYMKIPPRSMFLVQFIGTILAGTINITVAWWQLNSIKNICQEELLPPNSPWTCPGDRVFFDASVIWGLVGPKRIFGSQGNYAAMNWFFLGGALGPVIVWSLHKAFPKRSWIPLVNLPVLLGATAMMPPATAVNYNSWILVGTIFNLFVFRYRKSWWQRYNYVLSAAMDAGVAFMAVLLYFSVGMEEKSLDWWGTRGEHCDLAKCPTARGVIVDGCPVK

[3] = biological target: T3, AtOPT6 (Arabidopsis thaliana, UniProt Q9T095); conditions: 100 uM folinic acid, opt1-delta cells, pH 5.5, 30 °C, 5 min
T3 construct: gene OPT6; cDNA from Arabidopsis Biological Resource Center, TEF promoter plasmid, in S. cerevisiae opt1-delta cells
T3 sequence (Q9T095 1-736): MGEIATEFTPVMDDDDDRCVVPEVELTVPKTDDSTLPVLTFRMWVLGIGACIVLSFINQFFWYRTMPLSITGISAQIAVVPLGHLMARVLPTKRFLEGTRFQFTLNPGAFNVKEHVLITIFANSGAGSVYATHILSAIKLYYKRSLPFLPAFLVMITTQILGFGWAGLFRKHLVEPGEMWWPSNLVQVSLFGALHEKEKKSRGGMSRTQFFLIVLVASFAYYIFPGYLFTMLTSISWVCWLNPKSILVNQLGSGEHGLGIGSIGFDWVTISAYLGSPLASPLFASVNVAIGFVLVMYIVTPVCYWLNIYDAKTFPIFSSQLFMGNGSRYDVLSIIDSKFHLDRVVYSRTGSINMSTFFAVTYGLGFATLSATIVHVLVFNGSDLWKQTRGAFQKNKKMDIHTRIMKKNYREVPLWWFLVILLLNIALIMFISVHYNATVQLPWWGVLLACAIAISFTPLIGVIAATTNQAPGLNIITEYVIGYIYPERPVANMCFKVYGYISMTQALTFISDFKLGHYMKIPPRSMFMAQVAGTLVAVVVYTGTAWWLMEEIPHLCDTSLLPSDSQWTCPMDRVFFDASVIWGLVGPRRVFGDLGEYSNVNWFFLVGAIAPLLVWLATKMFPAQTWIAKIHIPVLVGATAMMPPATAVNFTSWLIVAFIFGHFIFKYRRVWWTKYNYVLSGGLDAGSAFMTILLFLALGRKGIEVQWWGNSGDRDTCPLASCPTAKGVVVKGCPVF

[4] = biological target: T4, Opt1p/Hgt1p (ScOPT1) (Saccharomyces cerevisiae, UniProt P40897); conditions: 100 uM folinic acid, opt1-delta cells, pH 5.5, 30 °C; time course
T4 construct: gene OPT1; full-length plasma membrane transporter, TEF promoter plasmid, in S. cerevisiae opt1-delta cells
T4 sequence (P40897 1-799): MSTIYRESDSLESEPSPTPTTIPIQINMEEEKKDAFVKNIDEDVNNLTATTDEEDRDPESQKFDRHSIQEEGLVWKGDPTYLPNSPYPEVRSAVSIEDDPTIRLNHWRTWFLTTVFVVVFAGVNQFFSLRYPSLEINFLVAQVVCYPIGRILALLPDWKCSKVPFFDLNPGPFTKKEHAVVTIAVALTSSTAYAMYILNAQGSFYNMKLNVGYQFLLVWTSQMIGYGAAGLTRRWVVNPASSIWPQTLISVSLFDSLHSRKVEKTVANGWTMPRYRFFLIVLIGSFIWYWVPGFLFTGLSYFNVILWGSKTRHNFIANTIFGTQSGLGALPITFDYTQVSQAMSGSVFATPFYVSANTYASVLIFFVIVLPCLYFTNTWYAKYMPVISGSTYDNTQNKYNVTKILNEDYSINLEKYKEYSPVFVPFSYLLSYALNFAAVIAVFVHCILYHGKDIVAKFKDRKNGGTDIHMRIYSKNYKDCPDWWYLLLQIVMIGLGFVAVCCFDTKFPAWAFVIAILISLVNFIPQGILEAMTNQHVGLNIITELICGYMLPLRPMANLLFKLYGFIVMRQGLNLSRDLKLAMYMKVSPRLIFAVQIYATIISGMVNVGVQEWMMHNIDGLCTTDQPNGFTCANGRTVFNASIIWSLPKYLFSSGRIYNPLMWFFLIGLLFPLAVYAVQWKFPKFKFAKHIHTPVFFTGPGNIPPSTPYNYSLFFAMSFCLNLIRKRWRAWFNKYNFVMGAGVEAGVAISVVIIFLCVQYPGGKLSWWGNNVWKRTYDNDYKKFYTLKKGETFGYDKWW

[5] = biological target: T5, AtOPT2 (Arabidopsis thaliana, UniProt O04514); conditions: 100 uM folinic acid, opt1-delta cells, pH 5.5, 30 °C, 5 min
T5 construct: gene OPT2; cDNA from Arabidopsis Biological Resource Center, TEF promoter plasmid, in S. cerevisiae opt1-delta cells
T5 sequence (O04514 1-734): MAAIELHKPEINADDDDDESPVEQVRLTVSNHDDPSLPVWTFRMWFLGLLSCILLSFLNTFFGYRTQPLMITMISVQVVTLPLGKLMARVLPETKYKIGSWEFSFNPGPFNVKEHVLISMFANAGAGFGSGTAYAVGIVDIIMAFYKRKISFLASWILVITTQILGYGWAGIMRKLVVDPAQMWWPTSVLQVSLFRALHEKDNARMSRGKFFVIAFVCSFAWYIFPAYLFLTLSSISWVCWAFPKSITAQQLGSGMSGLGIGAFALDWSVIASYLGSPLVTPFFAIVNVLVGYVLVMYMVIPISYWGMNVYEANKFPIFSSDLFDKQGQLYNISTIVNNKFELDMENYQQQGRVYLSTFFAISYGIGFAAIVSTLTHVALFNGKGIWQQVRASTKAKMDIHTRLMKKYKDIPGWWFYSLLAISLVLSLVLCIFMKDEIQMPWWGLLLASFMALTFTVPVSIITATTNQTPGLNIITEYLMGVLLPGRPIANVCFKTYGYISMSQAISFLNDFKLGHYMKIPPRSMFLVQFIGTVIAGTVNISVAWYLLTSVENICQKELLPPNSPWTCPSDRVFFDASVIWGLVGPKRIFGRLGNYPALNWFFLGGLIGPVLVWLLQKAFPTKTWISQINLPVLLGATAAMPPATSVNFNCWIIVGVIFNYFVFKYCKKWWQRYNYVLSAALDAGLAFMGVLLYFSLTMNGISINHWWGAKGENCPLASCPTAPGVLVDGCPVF

[6] = biological target: T6, CaOPT1 (Candida albicans, UniProt Q5YBA3); conditions: 100 uM folinic acid, opt1-delta cells, pH 5.5, 30 °C, 5 min
T6 construct: gene OPT1; TEF promoter plasmid, expressed in S. cerevisiae opt1-delta cells
T6 sequence (Q5YBA3 1-783): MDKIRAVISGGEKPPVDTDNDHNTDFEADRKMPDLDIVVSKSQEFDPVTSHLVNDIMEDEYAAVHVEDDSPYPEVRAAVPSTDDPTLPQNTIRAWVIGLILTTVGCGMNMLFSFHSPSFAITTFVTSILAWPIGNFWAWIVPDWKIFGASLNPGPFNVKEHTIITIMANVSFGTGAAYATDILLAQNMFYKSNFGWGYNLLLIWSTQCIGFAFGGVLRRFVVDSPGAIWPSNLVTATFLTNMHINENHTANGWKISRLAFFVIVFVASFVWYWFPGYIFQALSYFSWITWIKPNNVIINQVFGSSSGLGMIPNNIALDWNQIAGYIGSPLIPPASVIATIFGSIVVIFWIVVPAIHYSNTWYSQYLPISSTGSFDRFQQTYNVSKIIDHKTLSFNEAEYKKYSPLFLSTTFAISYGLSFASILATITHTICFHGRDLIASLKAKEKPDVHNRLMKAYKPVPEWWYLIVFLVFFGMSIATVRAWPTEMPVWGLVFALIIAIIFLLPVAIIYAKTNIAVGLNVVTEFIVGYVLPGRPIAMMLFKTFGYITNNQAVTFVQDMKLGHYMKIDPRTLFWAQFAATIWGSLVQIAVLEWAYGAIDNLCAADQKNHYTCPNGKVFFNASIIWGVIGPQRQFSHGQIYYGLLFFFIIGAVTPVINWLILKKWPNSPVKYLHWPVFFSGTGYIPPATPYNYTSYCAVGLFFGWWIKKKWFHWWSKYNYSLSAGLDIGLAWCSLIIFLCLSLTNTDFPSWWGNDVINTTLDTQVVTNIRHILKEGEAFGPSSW

In the case of `Nc1nc2c(c(=O)[nH]1)N(C=O)[C@@H](CNc1ccc(C(=O)N[C@@H](CCC(=O)O)C(=O)O)cc1)CN2` [folinic acid], the “LC-MS/MS cellular uptake versus vector control” value [1] is reported as “carried out uptake experiments with AfOPTH to confirm its ability to transport folates”, the “LC-MS/MS cellular uptake versus vector control” value [2] is reported as “AtOPT2 and AtOPT4 and even AtOPT6 contribute to folate transport” and the “LC-MS/MS cellular uptake versus vector control” value [3] is reported as “AtOPT2 and AtOPT4 and even AtOPT6 contribute to folate transport”. For the same compound, the “LC-MS/MS cellular uptake versus vector control” value [4] was “a rapid increase in intracellular folinic acid was observed in the cells bearing TEF-OPT1 plasmid”, the “LC-MS/MS cellular uptake versus vector control” value [5] was “AtOPT2 and AtOPT4 and even AtOPT6 contribute to folate transport” and the “LC-MS/MS cellular uptake versus vector control” value [6] was “confirmed the ability of C. albicans CaOPT1 to transport folate by uptake assays”.

Reference: paper PMC12687453, “Plasma membrane folate transport in fungi and plants is mediated by members of the oligopeptide transporter (OPT) family” (Biochemical Journal, 2025)
